What was measured:
CSNK1A1L = CSNK1A1L (Homo sapiens (Human), UniProt Q8N752); assay: KINOMEscan binding assay; conditions: percent of control
EPHB4 = EPHB4 (Homo sapiens (Human), UniProt P54760); assay: KINOMEscan binding assay; conditions: percent of control
[1] = target: ABL1(T3151)-non-phosphorylated (Homo sapiens (Human), UniProt P00519, T315I); assay: KINOMEscan binding assay; conditions: percent of control
[2] = target: (Homo sapiens (Human), UniProt P49674); assay: KINOMEscan binding assay; conditions: CSML1E; percent of control
IKK-EPSILON = IKK-EPSILON (Homo sapiens (Human), UniProt Q14164); assay: KINOMEscan binding assay; conditions: percent of control
Sequence of IKK-EPSILON (Q14164 whole entry): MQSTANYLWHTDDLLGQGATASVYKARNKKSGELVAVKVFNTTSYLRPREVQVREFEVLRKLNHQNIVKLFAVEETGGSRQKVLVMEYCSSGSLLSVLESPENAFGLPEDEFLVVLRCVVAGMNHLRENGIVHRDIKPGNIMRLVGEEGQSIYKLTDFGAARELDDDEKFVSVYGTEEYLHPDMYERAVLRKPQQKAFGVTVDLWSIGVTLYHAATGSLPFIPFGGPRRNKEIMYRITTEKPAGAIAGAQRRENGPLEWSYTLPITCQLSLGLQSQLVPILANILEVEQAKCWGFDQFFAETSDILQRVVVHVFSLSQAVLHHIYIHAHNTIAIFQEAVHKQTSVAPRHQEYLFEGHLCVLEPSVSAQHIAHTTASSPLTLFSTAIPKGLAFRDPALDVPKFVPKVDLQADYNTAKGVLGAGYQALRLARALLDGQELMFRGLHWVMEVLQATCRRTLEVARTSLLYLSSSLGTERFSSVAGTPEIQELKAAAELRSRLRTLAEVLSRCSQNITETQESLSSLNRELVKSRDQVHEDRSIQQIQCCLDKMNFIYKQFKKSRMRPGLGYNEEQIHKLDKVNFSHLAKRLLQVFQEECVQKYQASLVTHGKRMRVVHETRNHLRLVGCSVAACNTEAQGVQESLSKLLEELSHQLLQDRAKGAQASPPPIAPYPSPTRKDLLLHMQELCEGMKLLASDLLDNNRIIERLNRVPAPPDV

MARK4 = MARK4 (Homo sapiens (Human), UniProt Q96L34); assay: KINOMEscan binding assay; conditions: percent of control
Sequence of MARK4 (Q96L34 whole entry): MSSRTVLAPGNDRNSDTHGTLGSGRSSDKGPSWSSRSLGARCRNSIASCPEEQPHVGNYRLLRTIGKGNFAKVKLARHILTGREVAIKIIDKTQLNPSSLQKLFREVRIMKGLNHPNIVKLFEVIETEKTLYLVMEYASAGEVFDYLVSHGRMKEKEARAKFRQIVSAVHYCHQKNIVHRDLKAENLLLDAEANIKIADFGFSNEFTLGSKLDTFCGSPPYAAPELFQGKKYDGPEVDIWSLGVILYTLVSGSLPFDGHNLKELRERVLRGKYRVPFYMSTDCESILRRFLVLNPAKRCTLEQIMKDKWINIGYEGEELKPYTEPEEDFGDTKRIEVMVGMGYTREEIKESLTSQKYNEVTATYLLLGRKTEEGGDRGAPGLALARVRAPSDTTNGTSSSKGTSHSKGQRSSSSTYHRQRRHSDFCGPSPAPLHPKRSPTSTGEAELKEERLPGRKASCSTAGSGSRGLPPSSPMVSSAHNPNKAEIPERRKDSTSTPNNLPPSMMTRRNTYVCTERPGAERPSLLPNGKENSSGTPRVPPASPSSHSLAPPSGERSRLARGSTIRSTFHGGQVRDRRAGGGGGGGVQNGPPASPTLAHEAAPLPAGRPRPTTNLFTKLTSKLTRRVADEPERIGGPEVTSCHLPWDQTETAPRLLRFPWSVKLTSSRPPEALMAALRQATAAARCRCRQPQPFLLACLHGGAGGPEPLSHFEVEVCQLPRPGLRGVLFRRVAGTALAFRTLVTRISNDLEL

FGFR1 = FGFR1 (Homo sapiens (Human), UniProt P11362); assay: KINOMEscan binding assay; conditions: percent of control
MEK3 = MEK3 (Homo sapiens (Human), UniProt P46734); assay: KINOMEscan binding assay; conditions: percent of control
[3] = Dynamic light scattering (compound aggregation); assay type: physicochemical; conditions: 20, 5 and 1 μM in buffer with and without Triton X-100
MEK6 = MEK6 (Homo sapiens (Human), UniProt P52564); assay: MEK family profiling ADP-Glo, MEK6; assay type: biochemical; conditions: p38α substrate; 0.6 μM ATP; read-out: IC50 MEK isoform 6
Sequence of MEK6 (P52564 whole entry, canonical isoform): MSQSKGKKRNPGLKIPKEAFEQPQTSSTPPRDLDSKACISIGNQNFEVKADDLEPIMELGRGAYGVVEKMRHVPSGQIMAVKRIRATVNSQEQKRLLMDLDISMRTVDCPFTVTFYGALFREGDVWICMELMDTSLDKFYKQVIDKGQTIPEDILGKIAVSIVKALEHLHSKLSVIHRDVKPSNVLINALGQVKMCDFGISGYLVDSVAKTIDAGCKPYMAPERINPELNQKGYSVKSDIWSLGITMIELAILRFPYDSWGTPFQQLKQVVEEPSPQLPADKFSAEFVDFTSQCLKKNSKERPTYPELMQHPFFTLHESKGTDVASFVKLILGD

CAMK4 = CAMK4 (Homo sapiens (Human), UniProt Q16566); assay: KINOMEscan binding assay; conditions: percent of control
Sequence of CAMK4 (Q16566 whole entry): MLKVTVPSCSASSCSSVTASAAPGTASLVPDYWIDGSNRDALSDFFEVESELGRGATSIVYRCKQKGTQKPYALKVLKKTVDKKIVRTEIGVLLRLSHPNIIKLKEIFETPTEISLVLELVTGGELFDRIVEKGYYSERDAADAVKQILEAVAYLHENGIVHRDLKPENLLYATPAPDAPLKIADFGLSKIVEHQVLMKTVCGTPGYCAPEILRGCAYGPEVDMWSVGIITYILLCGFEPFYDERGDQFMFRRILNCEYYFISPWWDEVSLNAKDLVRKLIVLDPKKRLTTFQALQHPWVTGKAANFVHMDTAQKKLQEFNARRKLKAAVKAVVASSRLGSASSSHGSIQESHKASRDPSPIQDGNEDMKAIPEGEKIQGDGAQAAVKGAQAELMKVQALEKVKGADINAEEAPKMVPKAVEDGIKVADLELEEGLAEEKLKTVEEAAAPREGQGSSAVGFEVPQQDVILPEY

panel of 57 kinases = conditions: 10 μM; S(35) criterion
KIT(L576P) = KIT(L576P) (Homo sapiens (Human), UniProt P10721, L576P); assay: KINOMEscan binding assay; conditions: percent of control
TRKC = TRKC (Homo sapiens (Human), UniProt Q16288); assay: KINOMEscan binding assay; conditions: percent of control
DMPK = DMPK (Homo sapiens (Human), UniProt Q09013); assay: KINOMEscan binding assay; conditions: percent of control
PRKCD = PRKCD (Homo sapiens (Human), UniProt Q05655); assay: KINOMEscan binding assay; conditions: percent of control
Sequence of PRKCD (Q05655 whole entry): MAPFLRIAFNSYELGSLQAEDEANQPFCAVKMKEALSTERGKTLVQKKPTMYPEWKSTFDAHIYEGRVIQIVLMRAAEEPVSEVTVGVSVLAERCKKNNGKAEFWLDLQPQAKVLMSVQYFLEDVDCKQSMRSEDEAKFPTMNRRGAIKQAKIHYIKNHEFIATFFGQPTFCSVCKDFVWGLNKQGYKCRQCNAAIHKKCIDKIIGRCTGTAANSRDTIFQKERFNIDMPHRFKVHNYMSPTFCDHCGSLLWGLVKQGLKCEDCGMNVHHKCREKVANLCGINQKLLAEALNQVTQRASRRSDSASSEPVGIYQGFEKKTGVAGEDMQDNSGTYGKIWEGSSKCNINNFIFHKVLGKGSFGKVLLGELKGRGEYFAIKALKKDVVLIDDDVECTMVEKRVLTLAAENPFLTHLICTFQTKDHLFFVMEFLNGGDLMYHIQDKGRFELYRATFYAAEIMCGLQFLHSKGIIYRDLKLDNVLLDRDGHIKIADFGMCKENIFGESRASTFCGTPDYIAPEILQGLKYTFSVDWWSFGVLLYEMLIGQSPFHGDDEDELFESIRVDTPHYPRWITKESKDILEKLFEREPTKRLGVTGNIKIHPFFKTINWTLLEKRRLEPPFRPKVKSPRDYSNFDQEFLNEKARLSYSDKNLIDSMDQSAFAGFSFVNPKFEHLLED

CSNK1G1 = CSNK1G1 (Homo sapiens (Human), UniProt Q9HCP0); assay: KINOMEscan binding assay; conditions: percent of control
Sequence of CSNK1G1 (Q9HCP0 whole entry): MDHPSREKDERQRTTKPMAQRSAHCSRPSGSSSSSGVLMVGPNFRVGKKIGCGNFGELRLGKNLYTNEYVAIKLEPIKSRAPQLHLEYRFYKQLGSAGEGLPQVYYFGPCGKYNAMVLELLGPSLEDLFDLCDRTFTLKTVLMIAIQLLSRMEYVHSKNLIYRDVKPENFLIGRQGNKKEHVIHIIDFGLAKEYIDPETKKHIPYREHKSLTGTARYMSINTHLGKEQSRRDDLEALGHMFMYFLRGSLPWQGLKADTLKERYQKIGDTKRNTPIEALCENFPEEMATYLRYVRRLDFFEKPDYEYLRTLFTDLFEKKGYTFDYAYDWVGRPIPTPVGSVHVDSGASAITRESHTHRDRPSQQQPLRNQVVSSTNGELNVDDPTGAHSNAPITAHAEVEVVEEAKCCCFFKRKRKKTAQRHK

SIK2 = SIK2 (Homo sapiens (Human), UniProt Q9H0K1); assay: KINOMEscan binding assay; conditions: percent of control
TNIK = TNIK (Homo sapiens (Human), UniProt Q9UKE5); assay: KINOMEscan binding assay; conditions: percent of control
RAF1 = RAF1 (Homo sapiens (Human), UniProt P04049); assay: KINOMEscan binding assay; conditions: percent of control
Sequence of RAF1 (P04049 whole entry, canonical isoform): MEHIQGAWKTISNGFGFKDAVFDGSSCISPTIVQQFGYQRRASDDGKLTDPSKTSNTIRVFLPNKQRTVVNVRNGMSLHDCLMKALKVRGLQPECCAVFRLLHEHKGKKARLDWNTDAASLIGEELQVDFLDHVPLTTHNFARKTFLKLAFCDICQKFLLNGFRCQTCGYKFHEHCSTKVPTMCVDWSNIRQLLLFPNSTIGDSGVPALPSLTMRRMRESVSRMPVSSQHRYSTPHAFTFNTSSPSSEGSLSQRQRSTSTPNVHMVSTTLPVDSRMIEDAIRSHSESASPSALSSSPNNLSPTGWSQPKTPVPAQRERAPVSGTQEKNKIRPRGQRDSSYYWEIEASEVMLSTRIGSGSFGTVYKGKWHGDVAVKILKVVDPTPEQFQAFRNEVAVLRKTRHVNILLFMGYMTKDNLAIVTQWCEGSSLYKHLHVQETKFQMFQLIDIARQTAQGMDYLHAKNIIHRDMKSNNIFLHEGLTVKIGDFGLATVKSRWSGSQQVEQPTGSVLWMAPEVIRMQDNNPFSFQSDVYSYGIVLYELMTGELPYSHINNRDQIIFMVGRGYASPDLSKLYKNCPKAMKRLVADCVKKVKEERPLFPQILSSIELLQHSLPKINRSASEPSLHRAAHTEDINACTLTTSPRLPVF

MEK2 = MEK2 (Homo sapiens (Human), UniProt P36507); assay: MEK family profiling ADP-Glo, MEK2; assay type: biochemical; conditions: Erk2 substrate; 0.6 μM ATP; read-out: IC50 MEK isoform 2
Sequence of MEK2 (P36507 whole entry, canonical isoform): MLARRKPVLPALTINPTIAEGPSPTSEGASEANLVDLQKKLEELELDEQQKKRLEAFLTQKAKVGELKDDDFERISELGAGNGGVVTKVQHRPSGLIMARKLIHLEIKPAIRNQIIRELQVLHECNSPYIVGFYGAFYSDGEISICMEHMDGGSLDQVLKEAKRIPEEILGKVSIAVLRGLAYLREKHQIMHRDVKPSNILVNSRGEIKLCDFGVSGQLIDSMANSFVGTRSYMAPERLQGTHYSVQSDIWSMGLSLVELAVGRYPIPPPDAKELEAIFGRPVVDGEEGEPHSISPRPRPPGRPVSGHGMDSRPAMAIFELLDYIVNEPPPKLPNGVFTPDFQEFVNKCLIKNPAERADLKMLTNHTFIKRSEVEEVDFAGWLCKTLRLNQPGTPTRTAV

MEK1 = MEK1 (Homo sapiens (Human), UniProt Q02750); assay: KINOMEscan binding assay; conditions: percent of control
PC3M cells = assay: Scratch wound assay; assay type: cell-based

Sequence of CSNK1A1L (Q8N752 whole entry): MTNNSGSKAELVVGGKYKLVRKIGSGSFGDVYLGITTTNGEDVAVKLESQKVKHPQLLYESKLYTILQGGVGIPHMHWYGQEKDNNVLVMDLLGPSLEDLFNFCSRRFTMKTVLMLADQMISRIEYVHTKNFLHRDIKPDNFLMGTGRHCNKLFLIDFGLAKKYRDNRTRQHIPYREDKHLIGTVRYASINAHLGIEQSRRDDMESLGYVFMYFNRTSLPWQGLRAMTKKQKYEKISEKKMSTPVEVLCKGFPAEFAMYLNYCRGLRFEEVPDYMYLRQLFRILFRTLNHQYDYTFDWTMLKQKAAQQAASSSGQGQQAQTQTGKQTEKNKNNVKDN

Structure (SMILES)	% Ctrl @ 10000 nM (CSNK1A1L)	% Ctrl @ 10000 nM (EPHB4)	% Ctrl @ 10000 nM [1]	% Ctrl @ 10000 nM [2]	% Ctrl @ 10000 nM (IKK-EPSILON)	% Ctrl @ 10000 nM (MARK4)	% Ctrl @ 10000 nM (FGFR1)	% Ctrl @ 10000 nM (MEK3)	IC50 (MEK6)	% Ctrl @ 10000 nM (CAMK4)	number of kinases hit, out of 57 tested (panel of 57 kinases)	% Ctrl @ 10000 nM (KIT(L576P))	% Ctrl @ 10000 nM (TRKC)	% Ctrl @ 10000 nM (DMPK)	% Ctrl @ 10000 nM (PRKCD)	% Ctrl @ 10000 nM (CSNK1G1)	% Ctrl @ 10000 nM (SIK2)	% Ctrl @ 10000 nM (TNIK)	% Ctrl @ 10000 nM (RAF1)	IC50 (MEK2)	other results
O=C(O)c1cccc(-c2n[nH]c3ccccc23)c1 [Compound 6a, 3-(1H-indazol-3-yl)benzoic Acid]	87 % Ctrl	89 % Ctrl	67 % Ctrl	88 % Ctrl	48 % Ctrl	97 % Ctrl	100 % Ctrl	13 % Ctrl	10 µM	100 % Ctrl	5	59 % Ctrl	39 % Ctrl	100 % Ctrl	100 % Ctrl	80 % Ctrl	93 % Ctrl	65 % Ctrl	100 % Ctrl	> 27 µM	compound aggregates by DLS [3]: under no conditions were aggregates observed
O=C(O)c1ccc(-c2n[nH]c3cc(F)ccc23)cc1 [Compound 6ff, 4-(6-fluoro-2H-indazol-3-yl)benzoic Acid]	93 % Ctrl	100 % Ctrl	15 % Ctrl	100 % Ctrl	43 % Ctrl	86 % Ctrl	99 % Ctrl	1.6 % Ctrl	11 µM	100 % Ctrl	12	11 % Ctrl	11 % Ctrl	100 % Ctrl	100 % Ctrl	90 % Ctrl	100 % Ctrl	3.6 % Ctrl	100 % Ctrl	> 27 µM	% Ctrl @ 10000 nM (MEK1): 49 % Ctrl; efficacy in wound scratch assay (PC3M cells; 10 μM): no efficacy; efficacy in wound scratch assay (PC3M cells; 25 μM): no efficacy; Percent Difference, DMSO vs. 10 uM inhibitor (PC3M cells; PC3M cells, 10 μM, wound gap 0 vs 20 hrs): −1.65%; Percent Difference, DMSO vs. 25 uM inhibitor (PC3M cells; PC3M cells, 25 μM, wound gap 0 vs 20 hrs): −0.16%

Source: patent US11370770B2, “3-arylindazoles as selective MEK4 inhibitors” (priority 2019, dated 2022)
